The test system of this experiment is Mycobacterium tuberculosis H37Rv growth inhibition, no glycerol. The experiment is described as follows: Confirmatory growth inhibition assay, Mycobacterium tuberculosis H37Rv, absence of glycerol (AID 449764).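 For all read-outs here: growth read after 7 days of incubation.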 The settings on record: for IC90: measured here: IC90 growth inhibition.

Each structure is given as a SMILES string.

For orientation: IC50 means the concentration at which inhibition is half-maximal. As a reminder, the IC90 is the concentration needed for an effect of 90%. Read a high IC90 as weaker potency. For `COC(=O)C1=C(c2ccc(OCc3ccccc3)cc2)C[C@@H]2CC[C@H]1N2C(=O)NC1CCN(Cc2ccccc2)CC1`, the IC50 is 25.3 µM and the IC90 came out at 29.1 µM.

Regarding `CC(C)(C)c1ccc(C(=O)NNc2cc(N3CCCCC3)nc(N3CCCCC3)n2)cc1`, the IC50 was 62.7 µM and the IC90 was found to be 74.4 µM.

`Cc1ccc(C)c(NNC(N)=S)c1`: the IC50 is 16 µM and the IC90 was 29.2 µM.

As for `COc1ccc2cc1Oc1ccc(cc1)C[C@H]1c3c(cc(OC)c4c3Oc3c(ccc5c3[C@H](C2)N(C)CC5)O4)CCN1C`, the IC50 is 5.54 µM and the IC90 came to 6.24 µM.

As to `CSc1ccccc1OCc1cc(C(=O)N2CCC(Oc3cccnc3)CC2)no1`, the IC50 is 28.3 µM and the IC90 stood at 37.3 µM.

As to `CCCn1c(=N)c(C(=O)NCc2ccc3c(c2)OCO3)cc2c(=O)n3cccc(C)c3nc21`, the IC50 was 20.6 µM and the IC90 was 29.1 µM.

For `Cc1nnc(-c2ccccc2)c(=O)n1/N=C/c1c(O)ccc2ccccc12`, the IC50 is 22.1 µM and the IC90 was 24.7 µM.

In the case of `C/C(=N\NC(N)=S)c1ccc(Cl)s1`, the IC50 was 11.8 µM and the IC90 stood at 23.4 µM.

Take `C=CCn1c(O)c(N=Nc2ccccc2O)c2ccccc21`: the IC50 is 16.4 µM and the IC90 amounted to 22.4 µM.

For the compound `CCCNC1=C(N(C(C)=O)c2cccc(F)c2)C(=O)c2ccccc2C1=O`, the IC50 was 12.2 µM and the IC90 was 15.6 µM.

For the compound `Cc1nc(N)nc(N)c1CCCc1ccc(Cl)c(Cl)c1`, the half-inhibitory concentration (IC50) was 87.4 µM and the IC90 was above 100 µM.

`N#Cc1cccc2c1-c1ccccc1/C2=N/NC(N)=O` came in with an IC90 above 100 µM.

Consider `C1=C(c2c[nH]c3ccccc23)CCNC1`, for which the IC50 is 56.5 µM and the 90% effect concentration (IC90) was 73.9 µM.

As for `Oc1cc(Nc2ccccc2)cc2cccnc12`, the IC50 is 19.7 µM and the IC90 came to 24.7 µM.

Turning to `O=C(c1cc2ccccc2o1)N1CCN(S(=O)(=O)c2ccc(Cl)s2)CC1`, the 50% inhibitory concentration (IC50) was 15.6 µM and the IC90 turned out to be 56 µM.

`COc1ccc(N2C(=O)C(Cl)=C(Nc3ccccc3O)C2=O)cc1`: the IC50 was 18.4 µM and the IC90 was determined as 24.8 µM.

`CSc1ccc(C(=O)C2CCCN(C(=O)c3ccc4c(c3)no[n+]4[O-])C2)cc1` (stereo not given): the IC50 was 1.65 µM and the IC90 was 2.53 µM.

Regarding `CCOC(=O)N1CCN(Cc2cc(Cl)c3cccnc3c2O)CC1`, the IC50 is 21.8 µM and the IC90 was determined as 24.7 µM.

With `COc1cccc2sc(Nc3nnc(-c4cccs4)o3)nc12`, the IC50 was 33.9 µM and the IC90 is 42.7 µM.

For `CCOc1ccc(-n2cc(-c3ccccc3)c3c(=O)[nH]cnc32)cc1`, the IC50 is 84 µM and the IC90 was above 100 µM.

Regarding `COC(=O)c1ccc(/C=C/c2c(-c3ccsc3)oc3ccc(N4CCOCC4)cc23)cc1`, the IC50 is 30.6 µM and the IC90 is 53.6 µM.

As for `Brc1ccc(-c2nc3ncccn3c2Nc2ccc3c(c2)OCCO3)o1`, the IC50 is 90.7 µM and the IC90 is above 100 µM.

As to `CCOC(=O)c1nn(-c2ccc(C)c(C)c2)cc1O`, the IC50 is 99.8 µM and the IC90 is above 100 µM.

`CN(Cc1ccc(Br)cc1)C(=O)CCN1C(=O)c2cccc([N+](=O)[O-])c2C1=O`: the IC50 is 97.3 µM and the IC90 was above 100 µM.

On to `CN(C)C/C=C/C(=O)Nc1cccc(-c2c[nH]c3ncnc(Oc4ccc(NC(=O)CC(=O)Nc5ccc(F)cc5)cc4F)c23)c1`, for which the concentration for half-maximal inhibition (IC50) is 12.3 µM and the IC90 worked out at 14 µM.

On to `O=C(COC(=O)C1=COCCO1)Nc1cccc(Oc2ccccc2)c1`, for which the IC50 is 9.49 µM and the IC90 amounted to 37.2 µM.

As for `O=C(NCCc1ccc(Cl)cc1)c1ccc(CS(=O)Cc2ccc(Cl)cc2)o1` (stereo not given), the IC50 is 45.2 µM and the IC90 worked out at 52.1 µM.

`CCOC(=O)c1ccc(N=c2sc(C(=O)OC)cc(=O)n2CCCN2CCOCC2)cc1`: the IC50 is 9.02 µM and the IC90 is 16.9 µM.

Regarding `CCCCOCCCn1c(-c2ccco2)nc2nc3ccccc3nc21`, the IC50 was 99.9 µM and the IC90 was above 100 µM.

`Cc1ccc(C)c(N/C(N)=N/c2nc(C)cc(C)n2)c1`: the IC50 was 7.67 µM and the IC90 was determined as 12.7 µM.

Regarding `CNC(=S)Nc1ccc(N2CCN(c3ccc(C(F)(F)F)cn3)CC2)nc1`, the concentration for half-maximal inhibition (IC50) is 9.42 µM and the IC90 was above 100 µM.

As to `Cc1cc(Cl)ccc1OCCCC(=O)NO`, the IC50 is 65.1 µM and the IC90 was above 100 µM.

For `CC1(C)OC(=O)C(=Cc2ccc[nH]2)C(=O)O1`, the IC50 was below 0.2 µM and the concentration for an effect of 90% (IC90) was above 100 µM.

Regarding `COc1ccc(C(=O)C2CCCN(C3CSCCSC3)C2)c(C)c1` (stereo not given), the IC50 is 33.5 µM and the IC90 stood at 44.9 µM.

For the compound `CCc1ccc2c(c1)/C(=C/C(=O)c1cccs1)C(=O)N2`, the IC50 is 2.55 µM and the IC90 turned out to be 4.12 µM.

As for `CC(C)CNc1nnnc2c1sc1nc(N3CCOCC3)c3c(c12)CC(C)(C)SC3`, the IC90 was above 100 µM.

As to `O=C1NCN(c2ccccc2)C12CCN(CCCC(c1ccc(F)cc1)c1ccc(F)cc1)CC2`, the IC50 was 43.2 µM and the IC90 is 49.2 µM.

In the case of `CCn1cc([N+](=O)[O-])c(C(=O)N2N=C(c3ccc4ccccc4c3)CC2c2ccccc2O)n1` (stereo not given), the IC50 is 50.1 µM and the IC90 is above 100 µM.

With `CN(C)c1ccc(CNC2C3CC4CC(C3)CC2C4)cc1` (stereo not given), the IC50 was 12.2 µM and the IC90 is 17 µM.

With `COC(=O)CCc1sc(Nc2ccc(Br)cc2)nc1-c1ccc(OC)cc1`, the IC50 is 40.9 µM and the IC90 was above 100 µM.

Take `Cn1ccc(=Nc2ccc(NC(=O)c3ccc(N=c4ccn(C)c5ccc([N+](=O)[O-])cc45)cc3)cc2)cc1`: the IC50 is below 0.2 µM and the IC90 is below 0.2 µM.

`Cc1ccc(OC(=O)c2oc3ccc(F)cc3c2C)c(C)c1`: the IC50 is 12 µM and the concentration for an effect of 90% (IC90) is 13.9 µM.

With `CCCOc1ccc(-c2cnc(SCC(N)=O)nc2N)cc1`, the IC50 was 42.3 µM and the 90% effect concentration (IC90) is above 100 µM.

For `O=C(NNC(=O)C12CC3CC(CC(C3)C1)C2)c1ccccn1`, the IC50 is 21.8 µM and the concentration for an effect of 90% (IC90) turned out to be 24.4 µM.

Take `Cc1cc(C)nc(-n2nc(C)cc2NC(=O)CN2CCC(C)CC2)n1`: the IC50 is 16.4 µM and the concentration for an effect of 90% (IC90) came to 35.3 µM.

`COC(=O)[C@@H](NC(=O)c1cc(COc2cncc(Cl)c2)on1)c1ccccc1`: the IC50 was 2.93 µM and the IC90 worked out at 3.31 µM.

Turning to `c1ccc(-c2cn3c(n2)CCc2ccc4cccnc4c2-3)cc1`, the IC50 is 22.4 µM and the 90% effect concentration (IC90) was determined as 25.4 µM.

In the case of `COc1ccccc1C1=NOC(COC(=O)c2ccc([N+](=O)[O-])cc2)C1` (stereo not given), the IC50 is 47.7 µM and the concentration for an effect of 90% (IC90) was above 100 µM.

`O=c1c2ccccc2nc(/C=C/c2ccccc2)n1-c1ccc(O)cc1`: the IC90 was above 50 µM.

On to `COc1ccc(-c2nc(CN3CCN(c4cc(C)nc(C)c4)CC3)c(C)o2)c2ccccc12`, for which the IC50 is 23.4 µM and the IC90 turned out to be 25.6 µM.

On to `CC1CC(C)CN(C(=O)C2CCC(CNc3c(N4CCCCC4)c(=O)c3=O)CC2)C1` (stereo not given), for which the IC50 was 45.8 µM and the concentration for an effect of 90% (IC90) is above 100 µM.

For `Cc1c(C(=O)Oc2cccc3ccccc23)cnn1-c1ccccc1`, the IC50 was 22.8 µM and the IC90 came to 26.1 µM.

Take `CC1CCN(C(=S)NC(=O)c2cccs2)CC1`: the IC50 was 23 µM and the IC90 was 26.3 µM.

On to `O=C1C2C(c3ccccc3)(C(=O)N1c1ccc(Cl)cc1)C2(c1ccccc1)c1ccccc1` (stereo not given), for which the IC50 is 11.6 µM and the IC90 came to 13.6 µM.

As for `CCCOP(=O)(OCCC)c1c([N+](=O)[O-])cc(C(F)(F)F)cc1[N+](=O)[O-]`, the IC50 is 5.5 µM and the IC90 was 7.7 µM.

`CN(C)c1ccc(O)c2c1CC1CC3[C@@H](N(C)C)C(=O)C(C(N)=O)C(=O)[C@]3(O)C(=O)C1C2=O` (stereo not given in full): the IC50 is 1.93 µM and the IC90 was determined as 3.99 µM.

For the compound `Cc1ccc(C)c(N2CCN(C(=O)c3ccc4nc(N5CCOCC5)sc4c3)CC2)c1`, the IC50 was 35.2 µM and the IC90 came out at 47.6 µM.

For `CN1CCc2cc3c(c4c2C1Cc1ccccc1-4)OCO3` (stereo not given), the IC50 is 2.35 µM and the IC90 was found to be 3.03 µM.

`COC(=O)C(C)Oc1ccc(Cc2ncc(C(F)(F)F)cc2Cl)cc1` (stereo not given): the IC50 was 3.43 µM and the concentration for an effect of 90% (IC90) is 5.97 µM.

Consider `CCCCCCCNC(=O)c1ccc(N2CCC3(CC2)OCCO3)c([N+](=O)[O-])c1`, for which the IC50 is 48.3 µM and the IC90 turned out to be 67.2 µM.

Consider `c1cc(Nc2cccc3nccnc23)c2nccnc2c1`, for which the IC50 was 24.4 µM and the IC90 is 28.3 µM.

With `CCCCCOc1ccc(NC2=CC(=O)CCC2)cc1`, the IC50 was 77.8 µM and the concentration for an effect of 90% (IC90) amounted to 99 µM.

For `Cc1ccccc1N1CCN(C(=O)c2ccc(Oc3ccc(C(F)(F)F)cn3)cc2)CC1`, the IC50 is 30.2 µM and the concentration for an effect of 90% (IC90) is 54.6 µM.

For the compound `CCCC1CC(C)(c2csc(Nc3ccc(OCC)cc3)n2)OC1=O` (stereo not given), the IC50 was 35.3 µM and the IC90 was 44.9 µM.

With `Clc1cccc(-c2cc3nc4c(c(NCc5ccco5)n3n2)CCCC4)c1`, the IC50 is 22.1 µM and the IC90 came out at 24.7 µM.

As to `Nc1c(C(=O)NC2CCCCC2)nsc1C(=O)OCC(=O)NC1CCCCC1`, the IC50 was 2.89 µM and the concentration for an effect of 90% (IC90) amounted to 3.4 µM.

As for `C/C(=N\Nc1ccc(S(=O)(=O)N2CCCCC2)cn1)c1cccc(Br)c1`, the IC50 was 39.2 µM and the IC90 was above 100 µM.

For the compound `CC(=O)c1cccc(NC(=O)C2C3C=CC(C3=C(c3ccccc3)c3ccccc3)C2C(=O)O)c1` (stereo not given), the IC90 was above 50 µM.

Take `Cn1c(-c2c(N)n(CCc3ccccc3)c3nc4ccccc4nc23)nc2ccccc21`: the IC50 is 17.9 µM and the IC90 is above 100 µM.

For `COc1cc2c(cc1OC)C1(Nc3c-2c(-c2ccccc2)nn3-c2ccccc2)C(=O)Nc2ccccc21` (stereo not given), the IC50 is 80.9 µM and the 90% effect concentration (IC90) is above 100 µM.

For the compound `COc1ccccc1-n1cc2c([N+](=O)[O-])cc([N+](=O)[O-])cc2n1`, the 50% inhibitory concentration (IC50) is 1.98 µM and the IC90 came to 5.89 µM.

For `CC(c1nc2ccccc2c(=O)[nH]1)N(C)CCOc1ccc(Cl)cc1` (stereo not given), the IC50 was 40.7 µM and the IC90 came to 55.5 µM.

The values are drawn from PubChem BioAssay AID449764 (Southern Research Specialized Biocontainment Screening …, 2010).
